Results taken from article PMC7083880 (Nature Communications, 2020).
Values joined by “and” are separate entries in the source; they are usually repeats but may differ in a detail not shown here. Equal entries are not always repeated.

What was measured:
[1] = system: firefly luciferase (Fluc) gene with UAG nonsense codon at position 109 in HeLa cells; experiment: Firefly luciferase readthrough assay, UAG PTC construct; type: cell-based, human
[2] = system: firefly luciferase construct with UGA PTC in HeLa cells; experiment: UGA readthrough luciferase assay with empty expression vector (E.v.) control; type: cell-based, human;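 for luciferase activity, average: DAP exposure for 24 h before luciferase measurement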;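 for luciferase activity, exp2: DAP exposure for 24 h before luciferase measurement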
Source text: (§1) Firefly luciferase from HEK293FT cells transfected with the Fluc-int-UGA construct was immunoprecipitated and digested with trypsin. The MS/MS spectrum of the peptide containing the PTC position and the sequence determination are shown. The upper red and blue sequences indicate the amino acids validated, respectively, by detection of Nter and Cter peptide fragments (b and y ion series). Peptide fragments y6 and y7 clearly identify tryptophan (W) at the PTC position. The black peaks correspond to non-attributed mass-to-charge ratio (m/z) values. […] Readthrough efficiency was determined by measuring luciferase activity in HeLa cells co-transfected with the firefly luciferase construct described in Fig. 1b and with increasing amounts of an expression vector for either FTSJ1 or CTU1 (0.5, 1, or 2 µg). The empty expression vector (E.v.) was used as control. […] The experiment was performed twice and the results of both experiments (Exp1 and Exp2) are shown. c Western blot analysis of FTSJ1 and CTU1. d 2′-O-methylation analysis of tRNA^Trp, tRNA^SER, and tRNA^GLN by RiboMethSeq. […] A molecular weight marker is indicated to the left of each gel. p-values (p) were calculated using Student’s t-test. Source data are provided as a Source Data file.
(§2) Among the enzymes modifying tRNAs liable to recognize a stop codon by extended wobbling, human FTSJ1 (TRM7 in yeast) exclusively modifies tRNAs involved in UGA readthrough. In addition to other tRNA targets, FTSJ1 methylates the cytosine at position 34 of tRNA^Trp. Inhibition of this modification could increase the capacity of tRNA^Trp to misdecode and recognize the UGA stop codon. […] FTSJ1 and CTU1 overexpression were assessed by western-blot analysis (Fig. 5c).

FTSJ1 = molecular target: T1, FTSJ1 (Homo sapiens, UniProt Q9UET6); experiment: UGA readthrough luciferase assay with FTSJ1 overexpression; type: cell-based
T1 construct: host or cells: HeLa
T1 sequence (Q9UET6 1-329): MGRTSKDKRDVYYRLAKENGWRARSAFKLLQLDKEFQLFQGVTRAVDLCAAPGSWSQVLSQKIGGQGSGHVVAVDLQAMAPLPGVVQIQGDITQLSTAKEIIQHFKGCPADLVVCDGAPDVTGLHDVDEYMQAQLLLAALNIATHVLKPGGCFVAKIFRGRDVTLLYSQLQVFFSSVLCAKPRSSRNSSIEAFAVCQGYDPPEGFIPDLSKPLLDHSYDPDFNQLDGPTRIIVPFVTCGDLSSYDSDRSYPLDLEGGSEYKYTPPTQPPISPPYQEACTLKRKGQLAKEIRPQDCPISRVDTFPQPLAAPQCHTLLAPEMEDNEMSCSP
Source text: as §1, §2

## Nc1nc(N)c2[nH]cnc2n1 [DAP, 2,6-diaminopurine]
[1]; DAP 3.75µM, average of 2 experiments
  Luciferase activity, UAG PTC: 366.5±43 and 366.5
[1]; DAP 3.75µM, experiment 1
  Luciferase activity, UAG PTC: 336
[1]; DAP 3.75µM, experiment 2
  Luciferase activity, UAG PTC: 397
[1]; DAP 37.5µM, average of 2 experiments
  Luciferase activity, UAG PTC: 451.5±145 and 451.5
[1]; DAP 37.5µM, experiment 1
  Luciferase activity, UAG PTC: 349
[1]; DAP 37.5µM, experiment 2
  Luciferase activity, UAG PTC: 554
[2]; 0.39µM
  luciferase activity, average: 1690.75
  luciferase activity, exp1: 838
  luciferase activity, exp1*1,5: 1257
  luciferase activity, exp2: 2124.5
[2]; 0.78µM
  luciferase activity, average: 2398.5
  luciferase activity, exp1: 1130
  luciferase activity, exp1*1,5: 1695
  luciferase activity, exp2: 3102
[2]; 1.56µM
  luciferase activity, average: 4502.75
  luciferase activity, exp1: 2583
  luciferase activity, exp1*1,5: 3874.5
  luciferase activity, exp2: 5131
[2]; 6.25µM
  luciferase activity, average: 33564.1
  luciferase activity, exp1: 10235.5
  luciferase activity, exp1*1,5: 15353.2
  luciferase activity, exp2: 51775
[2]; 25µM
  luciferase activity, average: 96238.8
  luciferase activity, exp1: 36932
  luciferase activity, exp1*1,5: 55398
  luciferase activity, exp2: 137080
[2]; 100µM
  luciferase activity, average: 228679
  luciferase activity, exp1: 118458
  luciferase activity, exp1*1,5: 177688
  luciferase activity, exp2: 279670
[2]; 300µM
  luciferase activity, average: 215676
  luciferase activity, exp1: 106186
  luciferase activity, exp1*1,5: 159278
  luciferase activity, exp2: 272074
[2]; 600µM
  luciferase activity, average: 184925
  luciferase activity, exp1: 75195.5
  luciferase activity, exp1*1,5: 112793
  luciferase activity, exp2: 257056
FTSJ1; 0.5µg FTSJ1, 0.39µM
  luciferase activity, average: 904.125
  luciferase activity, exp1: 632.5
  luciferase activity, exp1*1,5: 948.75
  luciferase activity, exp2: 859.5
FTSJ1; 0.5µg FTSJ1, 0.78µM
  luciferase activity, average: 1247.62
  luciferase activity, exp1: 776.5
  luciferase activity, exp1*1,5: 1164.75
  luciferase activity, exp2: 1330.5
FTSJ1; 0.5µg FTSJ1, 1.56µM
  luciferase activity, average: 1901
  luciferase activity, exp1: 1287
  luciferase activity, exp1*1,5: 1930.5
  luciferase activity, exp2: 1871.5
FTSJ1; 0.5µg FTSJ1, 6.25µM
  luciferase activity, average: 9598.75
  luciferase activity, exp1: 3517
  luciferase activity, exp1*1,5: 5275.5
  luciferase activity, exp2: 13922
FTSJ1; 0.5µg FTSJ1, 25µM
  luciferase activity, average: 34831.4
  luciferase activity, exp1: 13760.5
  luciferase activity, exp1*1,5: 20640.8
  luciferase activity, exp2: 49022
FTSJ1; 0.5µg FTSJ1, 100µM
  luciferase activity, average: 81250
  luciferase activity, exp1: 48276
  luciferase activity, exp1*1,5: 72414
  luciferase activity, exp2: 90086
FTSJ1; 0.5µg FTSJ1, 300µM
  luciferase activity, average: 102352
  luciferase activity, exp1: 48428.5
  luciferase activity, exp1*1,5: 72642.8
  luciferase activity, exp2: 132062
FTSJ1; 0.5µg FTSJ1, 600µM
  luciferase activity, average: 91333.2
  luciferase activity, exp1: 34760
  luciferase activity, exp1*1,5: 52140
  luciferase activity, exp2: 130526
FTSJ1; 1µg FTSJ1, 0.39µM
  luciferase activity, average: 825.625
  luciferase activity, exp1: 545.5
